# Test results as given in PubChem BioAssay (NCI).
#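 Step 1: Grow cells in 96-well plates. Step 2: Expose to compound for 48 hours at 5 concentrations. Step 3: Interpolate endpoints linearly; if unreached, use highest concentration. GI50: concentration for 50% inhibition of growth. TGI: total growth inhibition.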
# How the values were obtained:
# Assay in all cases: inhibition of tumour cell growth, NCI panel, 48 h
# OVCAR-5 ovarian = test system: OVCAR-5 ovarian
# OVCAR-3 ovarian = test system: OVCAR-3 ovarian
# A549 NSCLC = test system: A549 NSCLC
# NCI/ADR-RES ovarian = test system: NCI/ADR-RES ovarian
# HOP-62 NSCLC = test system: HOP-62 NSCLC
# ACHN renal = test system: ACHN renal
# SK-MEL-5 melanoma = test system: SK-MEL-5 melanoma
# SK-MEL-2 melanoma = test system: SK-MEL-2 melanoma
# HCT-15 colon = test system: HCT-15 colon
# OVCAR-4 ovarian = test system: OVCAR-4 ovarian
# COLO 205 colon = test system: COLO 205 colon
# KM12 colon = test system: KM12 colon
# RXF 393 renal = test system: RXF 393 renal
# HS 578T breast = test system: HS 578T breast
# SNB-19 CNS = test system: SNB-19 CNS
# M14 melanoma = test system: M14 melanoma
# T-47D breast = test system: T-47D breast
# MDA-MB-231 breast = test system: MDA-MB-231 breast
# UACC-62 melanoma = test system: UACC-62 melanoma
# IGROV1 ovarian = test system: IGROV1 ovarian
# MOLT-4 leukemia = test system: MOLT-4 leukemia
# K-562 leukemia = test system: K-562 leukemia
# DU-145 prostate = test system: DU-145 prostate
# SW-620 colon = test system: SW-620 colon
# OVCAR-8 ovarian = test system: OVCAR-8 ovarian
# MCF7 breast = test system: MCF7 breast
# BT-549 breast = test system: BT-549 breast
# NCI-H226 lung = test system: NCI-H226 lung
# SK-OV-3 ovarian = test system: SK-OV-3 ovarian
# NCI-H460 lung = test system: NCI-H460 lung
# NCI-H23 lung = test system: NCI-H23 lung
# UACC-257 melanoma = test system: UACC-257 melanoma
# SN12C renal = test system: SN12C renal
# PC-3 prostate = test system: PC-3 prostate
# LOX IMVI melanoma = test system: LOX IMVI melanoma
# MALME-3M melanoma = test system: MALME-3M melanoma
# SF-268 CNS = test system: SF-268 CNS
# SK-MEL-28 melanoma = test system: SK-MEL-28 melanoma
# RPMI-8226 leukemia = test system: RPMI-8226 leukemia
# HOP-92 NSCLC = test system: HOP-92 NSCLC
# SF-539 CNS = test system: SF-539 CNS
# MDA-MB-435 = test system: MDA-MB-435
# 786-0 renal = test system: 786-0 renal
# HCT-116 colon = test system: HCT-116 colon
# HT29 colon = test system: HT29 colon
# SF-295 CNS = test system: SF-295 CNS
# NCI-H522 lung = test system: NCI-H522 lung
# TK-10 renal = test system: TK-10 renal
# UO-31 renal = test system: UO-31 renal
# A498 renal = test system: A498 renal
# HCC-2998 colon = test system: HCC-2998 colon
# U251 CNS = test system: U251 CNS
# SR leukemia = test system: SR leukemia
# CCRF-CEM leukemia = test system: CCRF-CEM leukemia
# SNB-75 CNS = test system: SNB-75 CNS
# CAKI-1 renal = test system: CAKI-1 renal
# HL-60(TB) leukemia = test system: HL-60(TB) leukemia
smiles,measurement,setting,value
CNCCCn1cc(C2=C(c3cn(C)c4ccccc34)C(=O)NC2=O)c2ccccc21,GI50,OVCAR-5 ovarian,7.65 µM
same,TGI,OVCAR-5 ovarian,20.7 µM
same,GI50,OVCAR-3 ovarian,5.14 µM
same,TGI,OVCAR-3 ovarian,13.8 µM
same,GI50,A549 NSCLC,4.09 µM
same,TGI,A549 NSCLC,10.8 µM
same,GI50,NCI/ADR-RES ovarian,14.1 µM
same,TGI,NCI/ADR-RES ovarian,25 µM
same,GI50,HOP-62 NSCLC,5.59 µM
same,TGI,HOP-62 NSCLC,13.4 µM
same,GI50,ACHN renal,3.99 µM
same,TGI,ACHN renal,13.9 µM
same,GI50,SK-MEL-5 melanoma,3.77 µM
same,TGI,SK-MEL-5 melanoma,7.3 µM
same,GI50,SK-MEL-2 melanoma,4.3 µM
same,TGI,SK-MEL-2 melanoma,8.52 µM
same,GI50,HCT-15 colon,6.04 µM
same,TGI,HCT-15 colon,22.7 µM
same,GI50,OVCAR-4 ovarian,3.06 µM
same,TGI,OVCAR-4 ovarian,14.1 µM
same,GI50,COLO 205 colon,1.95 µM
same,TGI,COLO 205 colon,5.52 µM
same,GI50,KM12 colon,3.89 µM
same,TGI,KM12 colon,8.39 µM
same,GI50,RXF 393 renal,3.48 µM
same,TGI,RXF 393 renal,6.95 µM
same,GI50,HS 578T breast,2.06 µM
same,TGI,HS 578T breast,9.64 µM
same,GI50,SNB-19 CNS,6.29 µM
same,TGI,SNB-19 CNS,22.7 µM
same,GI50,M14 melanoma,4.17 µM
same,TGI,M14 melanoma,7.98 µM
same,GI50,T-47D breast,5.66 µM
same,TGI,T-47D breast,15.1 µM
same,GI50,MDA-MB-231 breast,5.32 µM
same,TGI,MDA-MB-231 breast,15.1 µM
same,GI50,UACC-62 melanoma,3.96 µM
same,TGI,UACC-62 melanoma,7.67 µM
same,GI50,IGROV1 ovarian,5.41 µM
same,TGI,IGROV1 ovarian,11.4 µM
same,GI50,MOLT-4 leukemia,5 µM
same,TGI,MOLT-4 leukemia,19.1 µM
same,GI50,K-562 leukemia,3.46 µM
same,TGI,K-562 leukemia,14.2 µM
same,GI50,DU-145 prostate,5.35 µM
same,TGI,DU-145 prostate,16.1 µM
same,GI50,SW-620 colon,3.72 µM
same,TGI,SW-620 colon,8.13 µM
same,GI50,OVCAR-8 ovarian,4.99 µM
same,TGI,OVCAR-8 ovarian,12.6 µM
same,GI50,MCF7 breast,2.74 µM
same,TGI,MCF7 breast,6.93 µM
same,GI50,BT-549 breast,4.81 µM
same,TGI,BT-549 breast,8.83 µM
same,GI50,NCI-H226 lung,6.2 µM
same,TGI,NCI-H226 lung,22.8 µM
same,GI50,SK-OV-3 ovarian,4.26 µM
same,TGI,SK-OV-3 ovarian,22.5 µM
same,GI50,NCI-H460 lung,4.53 µM
same,TGI,NCI-H460 lung,9.19 µM
same,GI50,NCI-H23 lung,5.21 µM
same,TGI,NCI-H23 lung,13.2 µM
same,GI50,UACC-257 melanoma,4.57 µM
same,TGI,UACC-257 melanoma,8.81 µM
same,GI50,SN12C renal,4.86 µM
same,TGI,SN12C renal,18.4 µM
same,GI50,PC-3 prostate,4.01 µM
same,TGI,PC-3 prostate,14.6 µM
same,GI50,LOX IMVI melanoma,3.93 µM
same,TGI,LOX IMVI melanoma,8.28 µM
same,GI50,MALME-3M melanoma,5.37 µM
same,TGI,MALME-3M melanoma,10.4 µM
same,GI50,SF-268 CNS,5.24 µM
same,TGI,SF-268 CNS,12 µM
same,GI50,SK-MEL-28 melanoma,3.85 µM
same,TGI,SK-MEL-28 melanoma,7.8 µM
same,GI50,RPMI-8226 leukemia,5.12 µM
same,TGI,RPMI-8226 leukemia,11.7 µM
same,GI50,HOP-92 NSCLC,2.63 µM
same,TGI,HOP-92 NSCLC,10.1 µM
same,GI50,SF-539 CNS,3.59 µM
same,TGI,SF-539 CNS,7.06 µM
same,GI50,MDA-MB-435,3.31 µM
same,TGI,MDA-MB-435,6.9 µM
same,GI50,786-0 renal,4.77 µM
same,TGI,786-0 renal,11.3 µM
same,GI50,HCT-116 colon,3.17 µM
same,TGI,HCT-116 colon,12.3 µM
same,GI50,HT29 colon,1.14 µM
same,TGI,HT29 colon,12.2 µM
same,GI50,SF-295 CNS,4.73 µM
same,TGI,SF-295 CNS,10.3 µM
same,GI50,NCI-H522 lung,4.01 µM
same,TGI,NCI-H522 lung,8.71 µM
same,GI50,TK-10 renal,4.16 µM
same,TGI,TK-10 renal,10.7 µM
same,GI50,UO-31 renal,3.58 µM
same,TGI,UO-31 renal,11.8 µM
same,GI50,A498 renal,4.29 µM
same,TGI,A498 renal,8.35 µM
same,GI50,HCC-2998 colon,5.13 µM
same,TGI,HCC-2998 colon,11.7 µM
same,GI50,U251 CNS,3.14 µM
same,TGI,U251 CNS,6.96 µM
same,GI50,SR leukemia,3.94 µM
same,TGI,SR leukemia,16.2 µM
same,GI50,CCRF-CEM leukemia,4.91 µM
same,TGI,CCRF-CEM leukemia,20.4 µM
same,GI50,SNB-75 CNS,0.281 µM
same,TGI,SNB-75 CNS,2.95 µM
same,GI50,CAKI-1 renal,4.13 µM
same,TGI,CAKI-1 renal,13.2 µM
same,GI50,HL-60(TB) leukemia,5.55 µM
same,TGI,HL-60(TB) leukemia,13.5 µM
